Values after ≈ are worked out from the molar mass of the structure shown.

Test in all cases: MIC, in vitro Diagnostic Sensitivity Test, agar-dilution technique
Holding throughout (type): cell-based

In one assay the test system is Enterobacter cloacae 029. The settings on record: inoculum 10^4 CFU/spot, read-out: minimum inhibitory concentration (MIC). The text has this:
(§1) The following results were obtained for representative compounds on a standard in vitro test system using Diagnostic Sensitivity Test. The antibacterial activity is described in terms of the minimum inhibitory concentration (MIC) determined by the agar-dilution technique with an inocukum size of 10^4 CFU/spot.

In another assay the test system is S. aureus 147N. The settings on record: Staphylococcus aureus, inoculum 10^4 CFU/spot, read-out: minimum inhibitory concentration (MIC).
Excerpt: as §1

The subject of the next assay is Enterbacter cloacae 108. The settings on record: inoculum 10^4 CFU/spot, read-out: minimum inhibitory concentration (MIC).
Excerpt: as §1

The next assay deals with E. coli TEM. The settings on record: Escherichia coli, read-out: minimum inhibitory concentration (MIC).
Excerpt: as §1

As for `CC(O)C1C(=O)N2C(C(=O)O)=C(SC3CNC(C(=O)Nc4csc(C(=O)O)c4)C3)SC12` [Example 1, (5R,6S,8R,2'S,4'S)-2-(2-(2-carboxy-4-thienylcarbamoyl)pyrrolidin-4-ylthio)-6-(1-hydroxyethyl)pen-2-em-3-carboxlic acid], the MIC in the assay on Enterobacter cloacae 029 was 0.015 µg/mL (≈ 0.0309 µM); in the assay on S. aureus 147N, 0.125 µg/mL (≈ 0.257 µM); with Enterbacter cloacae 108, 0.5 µg/mL (≈ 1.03 µM); with E. coli TEM, 0.008 µg/mL (≈ 0.0165 µM).

Consider `CO/N=C(\C(=O)N[C@@H]1C(=O)N2C(C(=O)O)=C(CSc3nc(=O)c(=O)[nH]n3C)CS[C@H]12)c1csc(N)n1` [ceftriaxone], for which the MIC with Enterobacter cloacae 029 was 0.06 µg/mL (≈ 0.108 µM); with S. aureus 147N it was 2 µg/mL (≈ 3.61 µM); with Enterbacter cloacae 108, 32 µg/mL (≈ 57.7 µM); with E. coli TEM, 0.03 µg/mL (≈ 0.0541 µM).
